PubChem BioAssay (NCI)
Values joined by “and” are separate entries in the source; they are usually repeats but may differ in a detail not shown here. Equal entries are not always repeated.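 Cells were grown in 96-well plates and exposed to each compound for 48 hours at five concentrations; endpoints were interpolated linearly between bracketing concentrations, or set to the highest concentration if not reached. At the GI50, growth is halved. TGI marks complete inhibition of growth.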

Test system: HCT-15 colon
Assay: growth of human tumour cells (NCI), 48 h

O=C(CNc1ccc(Cl)cc1)Nc1ccc(-c2nc3ccccc3s2)cc1 and CCCCCCNC(=O)c1cc(NCc2cc(O)ccc2O)ccc1O are within 1.5-fold of each other in GI50: 1.84 µM for the first, 2.16 µM for the second.

CCCCCCCCCCCCOC1C(C(COC2OC(C3COC(C)(C)O3)C3OC(C)(C)OC23)NC(=O)Nc2ccc(C(=O)O)cc2)OC2OC(C)(C)OC21 (centres undefined) and CCn1c(-c2nonc2N)nc2c(C#CC(C)(C)O)nc(OC[C@H](N)c3ccccc3)cc21 are within 1.5-fold of each other in GI50: 2.63 µM for the first, 2.53 µM for the second.

First: N#Cc1c(NN)n(C2OC(CO)C(O)C2O)c2ncnc(N)c12 (centres undefined)
Second: Cc1ccc(C)c(C2=C(c3cn(C)c4ccccc34)C(=O)NC2=O)c1
The GI50 of the first is 470-fold lower: 0.0198 µM for the first, 9.33 µM for the second.

Going from O=C(CNc1ccc(Cl)cc1)Nc1ccc(-c2nc3ccccc3s2)cc1 to S=C(Nc1ccccc1)N(/N=C/C=C/c1ccccc1)c1nnc(-c2ccccc2)c(-c2ccccc2)n1, the TGI rises from 5.32 µM to greater than 100 µM.

COc1ccc(C(=O)C(c2ccc(OC)cc2)C2(O)C(=O)Nc3ccc([N+](=O)[O-])cc32)cc1 (centres undefined) and Cc1ccc(C)c(C2=C(c3cn(C)c4ccccc34)C(=O)NC2=O)c1 cannot be ordered by TGI: greater than 100 µM for the first, greater than 25 µM for the second.

First: O=C(/C=C/c1ccccc1O)c1ccccc1O
Second: CCCCCCNC(=O)c1cc(NCc2cc(O)ccc2O)ccc1O
The TGI of the first is higher: greater than 100 µM for the first, 7.35 µM for the second.

Compared with Cc1nc2c(-c3cnc(N)nc3)nc(N3CCOCC3)nc2n1C(C)C, CCn1c(-c2nonc2N)nc2c(C#CC(C)(C)O)nc(OC[C@H](N)c3ccccc3)cc21 is lower in TGI: greater than 100 µM for the first, 6.73 µM for the second.

Compared with CCCCCCCCCCCCOC1C(C(COC2OC(C3COC(C)(C)O3)C3OC(C)(C)OC23)NC(=O)Nc2ccc(C(=O)O)cc2)OC2OC(C)(C)OC21 (centres undefined), CC(CCC=O)CCOCc1ccccc1 (centres undefined) is higher in TGI: 6.7 µM for the first, greater than 100 µM for the second.

In the case of CCN(CC)CCC(CNc1ccnc2cc(Cl)ccc12)c1ccc(OC)cc1 (centres undefined), the GI50 was 3.06 µM and 3.51 µM.

For CCN(CC)CCC(CNc1ccnc2cc(Cl)ccc12)c1ccc(OC)cc1 (centres undefined), the TGI was 12.3 µM and 16.5 µM.

Test system: COLO 205 colon
Assay: growth of human tumour cells (NCI), 48 h

First: O=C(CNc1ccc(Cl)cc1)Nc1ccc(-c2nc3ccccc3s2)cc1
Second: CCCCCCNC(=O)c1cc(NCc2cc(O)ccc2O)ccc1O
The GI50 of the first is 3.1-fold lower: 3.49 µM for the first, 10.8 µM for the second.

CCCCCCCCCCCCOC1C(C(COC2OC(C3COC(C)(C)O3)C3OC(C)(C)OC23)NC(=O)Nc2ccc(C(=O)O)cc2)OC2OC(C)(C)OC21 (centres undefined) and CCn1c(-c2nonc2N)nc2c(C#CC(C)(C)O)nc(OC[C@H](N)c3ccccc3)cc21 are within 1.5-fold of each other in GI50: 2.71 µM for the first, 3.52 µM for the second.

Cc1ccc(C)c(C2=C(c3cn(C)c4ccccc34)C(=O)NC2=O)c1 was tested, and the GI50 was 7.36 µM.

Going from O=C(CNc1ccc(Cl)cc1)Nc1ccc(-c2nc3ccccc3s2)cc1 to S=C(Nc1ccccc1)N(/N=C/C=C/c1ccccc1)c1nnc(-c2ccccc2)c(-c2ccccc2)n1, the TGI rises from 10.2 µM to greater than 100 µM.

COc1ccc(C(=O)C(c2ccc(OC)cc2)C2(O)C(=O)Nc3ccc([N+](=O)[O-])cc32)cc1 (centres undefined) and Cc1ccc(C)c(C2=C(c3cn(C)c4ccccc34)C(=O)NC2=O)c1 cannot be ordered by TGI: greater than 100 µM for the first, greater than 25 µM for the second.

Compared with O=C(/C=C/c1ccccc1O)c1ccccc1O, CCCCCCNC(=O)c1cc(NCc2cc(O)ccc2O)ccc1O is lower in TGI: greater than 100 µM for the first, 28.6 µM for the second.

First: CCCCCCCCCCCCOC1C(C(COC2OC(C3COC(C)(C)O3)C3OC(C)(C)OC23)NC(=O)Nc2ccc(C(=O)O)cc2)OC2OC(C)(C)OC21 (centres undefined)
Second: CC(CCC=O)CCOCc1ccccc1 (centres undefined)
The TGI of the first is lower: 9.05 µM for the first, greater than 100 µM for the second.

Compared with CCn1c(-c2nonc2N)nc2c(C#CC(C)(C)O)nc(OC[C@H](N)c3ccccc3)cc21, N#Cc1c(NN)n(C2OC(CO)C(O)C2O)c2ncnc(N)c12 (centres undefined) is 170-fold lower in TGI: 7 µM for the first, 0.0424 µM for the second.

Cc1nc2c(-c3cnc(N)nc3)nc(N3CCOCC3)nc2n1C(C)C was tested, and the TGI was 1.1 µM and 3.68 µM.
CCN(CC)CCC(CNc1ccnc2cc(Cl)ccc12)c1ccc(OC)cc1 (centres undefined) was tested, and the TGI was 4.3 µM and 2.95 µM.

For CCN(CC)CCC(CNc1ccnc2cc(Cl)ccc12)c1ccc(OC)cc1 (centres undefined), the GI50 was 1.9 µM and 1.34 µM.

Test system: 786-0 renal
Assay: growth of human tumour cells (NCI), 48 h

Compared with O=C(CNc1ccc(Cl)cc1)Nc1ccc(-c2nc3ccccc3s2)cc1, CCCCCCNC(=O)c1cc(NCc2cc(O)ccc2O)ccc1O is 2.7-fold higher in GI50: 1.9 µM for the first, 5.22 µM for the second.

CCCCCCCCCCCCOC1C(C(COC2OC(C3COC(C)(C)O3)C3OC(C)(C)OC23)NC(=O)Nc2ccc(C(=O)O)cc2)OC2OC(C)(C)OC21 (centres undefined) and CCn1c(-c2nonc2N)nc2c(C#CC(C)(C)O)nc(OC[C@H](N)c3ccccc3)cc21 are within 1.5-fold of each other in GI50: 2.24 µM for the first, 1.91 µM for the second.

Compared with N#Cc1c(NN)n(C2OC(CO)C(O)C2O)c2ncnc(N)c12 (centres undefined), Cc1ccc(C)c(C2=C(c3cn(C)c4ccccc34)C(=O)NC2=O)c1 is higher in GI50: 0.228 µM for the first, greater than 25 µM for the second.

Going from O=C(CNc1ccc(Cl)cc1)Nc1ccc(-c2nc3ccccc3s2)cc1 to S=C(Nc1ccccc1)N(/N=C/C=C/c1ccccc1)c1nnc(-c2ccccc2)c(-c2ccccc2)n1, the TGI rises from 4.03 µM to greater than 100 µM.

COc1ccc(C(=O)C(c2ccc(OC)cc2)C2(O)C(=O)Nc3ccc([N+](=O)[O-])cc32)cc1 (centres undefined) and Cc1ccc(C)c(C2=C(c3cn(C)c4ccccc34)C(=O)NC2=O)c1 cannot be ordered by TGI: greater than 100 µM for the first, greater than 25 µM for the second.

First: O=C(/C=C/c1ccccc1O)c1ccccc1O
Second: CCCCCCNC(=O)c1cc(NCc2cc(O)ccc2O)ccc1O
The TGI of the first is higher: greater than 100 µM for the first, 20.7 µM for the second.

First: CCCCCCCCCCCCOC1C(C(COC2OC(C3COC(C)(C)O3)C3OC(C)(C)OC23)NC(=O)Nc2ccc(C(=O)O)cc2)OC2OC(C)(C)OC21 (centres undefined)
Second: CC(CCC=O)CCOCc1ccccc1 (centres undefined)
The TGI of the first is lower: 5.49 µM for the first, greater than 100 µM for the second.

CCn1c(-c2nonc2N)nc2c(C#CC(C)(C)O)nc(OC[C@H](N)c3ccccc3)cc21 and N#Cc1c(NN)n(C2OC(CO)C(O)C2O)c2ncnc(N)c12 (centres undefined) are within 1.5-fold of each other in TGI: 5.43 µM for the first, 4.77 µM for the second.

For Cc1nc2c(-c3cnc(N)nc3)nc(N3CCOCC3)nc2n1C(C)C, the TGI was 1.32 µM and 0.902 µM.
In the case of CCN(CC)CCC(CNc1ccnc2cc(Cl)ccc12)c1ccc(OC)cc1 (centres undefined), the TGI was 25.8 µM and 11.8 µM.

CCN(CC)CCC(CNc1ccnc2cc(Cl)ccc12)c1ccc(OC)cc1 (centres undefined) was tested, and the GI50 was 11.9 µM and 3.46 µM.

Test system: MOLT-4 leukemia
Assay: growth of human tumour cells (NCI), 48 h

O=C(CNc1ccc(Cl)cc1)Nc1ccc(-c2nc3ccccc3s2)cc1 and CCCCCCNC(=O)c1cc(NCc2cc(O)ccc2O)ccc1O are within 1.5-fold of each other in GI50: 0.811 µM for the first, 1.2 µM for the second.

CCCCCCCCCCCCOC1C(C(COC2OC(C3COC(C)(C)O3)C3OC(C)(C)OC23)NC(=O)Nc2ccc(C(=O)O)cc2)OC2OC(C)(C)OC21 (centres undefined) and CCn1c(-c2nonc2N)nc2c(C#CC(C)(C)O)nc(OC[C@H](N)c3ccccc3)cc21 are within 1.5-fold of each other in GI50: 3.29 µM for the first, 3.09 µM for the second.

Compared with N#Cc1c(NN)n(C2OC(CO)C(O)C2O)c2ncnc(N)c12 (centres undefined), Cc1ccc(C)c(C2=C(c3cn(C)c4ccccc34)C(=O)NC2=O)c1 is 130-fold higher in GI50: 0.095 µM for the first, 12.4 µM for the second.

O=C(CNc1ccc(Cl)cc1)Nc1ccc(-c2nc3ccccc3s2)cc1 and S=C(Nc1ccccc1)N(/N=C/C=C/c1ccccc1)c1nnc(-c2ccccc2)c(-c2ccccc2)n1 cannot be ordered by TGI: greater than 26.6 µM for the first, greater than 100 µM for the second.

COc1ccc(C(=O)C(c2ccc(OC)cc2)C2(O)C(=O)Nc3ccc([N+](=O)[O-])cc32)cc1 (centres undefined) and Cc1ccc(C)c(C2=C(c3cn(C)c4ccccc34)C(=O)NC2=O)c1 cannot be ordered by TGI: greater than 100 µM for the first, greater than 25 µM for the second.

Going from O=C(/C=C/c1ccccc1O)c1ccccc1O to CCCCCCNC(=O)c1cc(NCc2cc(O)ccc2O)ccc1O, the TGI falls from greater than 100 µM to 13.4 µM.

Compared with Cc1nc2c(-c3cnc(N)nc3)nc(N3CCOCC3)nc2n1C(C)C, CCn1c(-c2nonc2N)nc2c(C#CC(C)(C)O)nc(OC[C@H](N)c3ccccc3)cc21 is lower in TGI: greater than 59.3 µM for the first, 14.7 µM for the second.

First: CCCCCCCCCCCCOC1C(C(COC2OC(C3COC(C)(C)O3)C3OC(C)(C)OC23)NC(=O)Nc2ccc(C(=O)O)cc2)OC2OC(C)(C)OC21 (centres undefined)
Second: CC(CCC=O)CCOCc1ccccc1 (centres undefined)
The TGI of the first is lower: 8.34 µM for the first, greater than 61.6 µM for the second.

N#Cc1c(NN)n(C2OC(CO)C(O)C2O)c2ncnc(N)c12 (centres undefined) gave a TGI of 0.402 µM.

Cc1nc2c(-c3cnc(N)nc3)nc(N3CCOCC3)nc2n1C(C)C was tested, and the GI50 was 0.297 µM and 0.197 µM.
CCN(CC)CCC(CNc1ccnc2cc(Cl)ccc12)c1ccc(OC)cc1 (centres undefined) was tested, and the GI50 was 6.77 µM and 4.68 µM.

CCN(CC)CCC(CNc1ccnc2cc(Cl)ccc12)c1ccc(OC)cc1 (centres undefined) was tested, and the TGI was 41.4 µM and 50.9 µM.

Test system: OVCAR-4 ovarian
Assay: growth of human tumour cells (NCI), 48 h

Compared with O=C(CNc1ccc(Cl)cc1)Nc1ccc(-c2nc3ccccc3s2)cc1, CCCCCCNC(=O)c1cc(NCc2cc(O)ccc2O)ccc1O is 2-fold higher in GI50: 2.78 µM for the first, 5.62 µM for the second.

CCCCCCCCCCCCOC1C(C(COC2OC(C3COC(C)(C)O3)C3OC(C)(C)OC23)NC(=O)Nc2ccc(C(=O)O)cc2)OC2OC(C)(C)OC21 (centres undefined) and CCn1c(-c2nonc2N)nc2c(C#CC(C)(C)O)nc(OC[C@H](N)c3ccccc3)cc21 are within 1.5-fold of each other in GI50: 3.56 µM for the first, 5.01 µM for the second.

Going from N#Cc1c(NN)n(C2OC(CO)C(O)C2O)c2ncnc(N)c12 (centres undefined) to Cc1ccc(C)c(C2=C(c3cn(C)c4ccccc34)C(=O)NC2=O)c1, the GI50 rises from 0.0538 µM to greater than 25 µM.

Going from O=C(CNc1ccc(Cl)cc1)Nc1ccc(-c2nc3ccccc3s2)cc1 to S=C(Nc1ccccc1)N(/N=C/C=C/c1ccccc1)c1nnc(-c2ccccc2)c(-c2ccccc2)n1, the TGI rises from 19.4 µM to greater than 100 µM.

COc1ccc(C(=O)C(c2ccc(OC)cc2)C2(O)C(=O)Nc3ccc([N+](=O)[O-])cc32)cc1 (centres undefined) and Cc1ccc(C)c(C2=C(c3cn(C)c4ccccc34)C(=O)NC2=O)c1 cannot be ordered by TGI: greater than 100 µM for the first, greater than 25 µM for the second.

Compared with O=C(/C=C/c1ccccc1O)c1ccccc1O, CCCCCCNC(=O)c1cc(NCc2cc(O)ccc2O)ccc1O is lower in TGI: greater than 100 µM for the first, 19.3 µM for the second.

Compared with CCCCCCCCCCCCOC1C(C(COC2OC(C3COC(C)(C)O3)C3OC(C)(C)OC23)NC(=O)Nc2ccc(C(=O)O)cc2)OC2OC(C)(C)OC21 (centres undefined), CC(CCC=O)CCOCc1ccccc1 (centres undefined) is higher in TGI: 15.3 µM for the first, greater than 100 µM for the second.

Going from CCn1c(-c2nonc2N)nc2c(C#CC(C)(C)O)nc(OC[C@H](N)c3ccccc3)cc21 to N#Cc1c(NN)n(C2OC(CO)C(O)C2O)c2ncnc(N)c12 (centres undefined), the TGI falls from 9.61 µM to 3.24 µM (3-fold).

Cc1nc2c(-c3cnc(N)nc3)nc(N3CCOCC3)nc2n1C(C)C was tested, and the TGI was 1.99 µM and 0.786 µM.
CCN(CC)CCC(CNc1ccnc2cc(Cl)ccc12)c1ccc(OC)cc1 (centres undefined) was tested, and the TGI was 20.3 µM and 28.1 µM.

With CCN(CC)CCC(CNc1ccnc2cc(Cl)ccc12)c1ccc(OC)cc1 (centres undefined) the GI50 was 3.7 µM and 4.66 µM.
